Experiment [1] concerns p38 MAPK and HSP27 phosphorylation. In words: Phosphorylation of p38 MAPK and HSP27 in PC3-M cells, Western blot. The class given is cell-based, human. The conditions noted are these: 50 µM, 24 hours, then TGFβ. As for the experimental part:
Supplementary Figure 9. […] (a) Depiction of […]
established MKK4 pathway regulating human PCa cell metastasis. […]
to MKK4, as measured by fluorescence-based thermal shift assay. Values are the mean±SD (of N=2 replicates) increase in melting temperature (ΔTm) of purified recombinant MKK4 induced by the indicated concentrations of KBU2046 or genistein. […]
in an in vitro kinase assay. The indicated concentrations of KBU2046 were added to recombinant activated MKK4, and its ability to phosphorylate kinase dead p38α MAPK (K53A) was measured by Western blot for total (p38 MAPK) and phosphorylated (pp38 MAPK) forms of […]
HSP27 in cells. PC3-M cells were pre-treated for 24 hours with 50 µM KBU2046 or genistein, as indicated, then with TGFβ, and Western blot performed. All findings are from a single experiment, with similar findings in identical separate experiments, repeated at least once. […]
Background: Immunoblotting shows a protein as a band on a membrane.

For experiment [2], the system named is PC3-M cells. Kind of experiment: Cell invasion of PC3-M cells with altered HSP90β. The class given is cell-based, human. As for the experimental part: Fig. 4 KBU2046 decreases phosphorylation of HSP90β. a Probing for KBU2046-induced changes in protein phosphorylation. PC3-M or PC3 cells were pre-treated with 10 µM KBU2046 for 3 days, then with ±TGFβ and the resultant cell lysate probed for changes in protein phosphorylation with the KinomeView® assay. The depicted western blot utilizes KinomeView® phospho-motif antibody, BL4176; the blue arrow denotes an 83 kDa band whose phosphorylation is inhibited by KBU2046 (see Supplementary Fig. 10 for complete KinomeView® assay screening data). b Proteomic analysis. PC3 cells were pre-treated with KBU2046 or vehicle, then with TGFβ, proteins from the resultant cell lysate were immunoprecipitated with BL4176, and HSP90β was identified by LC-MS/MS analysis (see Supplementary Fig. 12 for expanded proteomic assay data). The phospho-motif recognized by the antibody is underlined; S*—denotes Ser226, whose phosphorylation is decreased by KBU2046. c, d The phospho-mimetic changes in HSP90β Ser^226 structure regulate human PCa cell invasion and KBU2046 efficacy. PC3-M cells were transfected with S226A-, S226D-, or WT-HSP90β, or empty vector (VC), treated with KBU2046 or vehicle, and cell invasion measured. Values are the mean ± SEM of a representative experiment of multiple experiments (all in replicates of N = 3); *denotes t-test P value <0.05 between bracketed conditions, or compared to VC […]
Boyden chamber cell invasion assays were performed as previously described by us[30], using either denatured collagen (BD Biosciences) or type IV human collagen (BD Biosciences), with all experiments repeated, each in N = 4 replicates. In some experiments, as indicated, cells were transfected with an expression plasmid, using Lipofectamine 2000™ (Invitrogen), or with siRNA, using DharmaFect Duo (Thermo Scientific) and co-transfected with β-Galactosidase (Plasmid pCMV•SPORT-βgal; Life Technology).
Supplementary Figure 13. Changes in HSP90β Ser226 structure as well as HSP90β expression regulate PCa cell invasion and KBU2046 efficacy. (a) Levels of HSP90β expression after transfection of cells. In manuscript Figs 4c and d, PC3-M cells were transfected with S226A-, S226D-, or WT-HSP90β, or empty vector (VC) and resultant effects upon cell invasion and KBU2046 efficacy measured. Depicted above are associated Western blots probing for HSP90β, FLAG (transfected HSP90β was FLAG-tagged) and GAPDH. (b-d) Knockdown of HSP90β decreases cell invasion and abrogates KBU2046 efficacy. PC3-M cells were transfected with siRNA to HSP90β (siHSP90b) or non-targeting siRNA (siCO). (b) The level of HSP90β (HSP90b) and HSP90α (HSP90a) transcript levels were measured by qRT/PCR, and expressed relative to that of GAPDH. (c) The level of HSP90β protein expression was measured by Western blot. (d) Cells were treated with KBU2046 (46) or vehicle control, and cell invasion measured. Values are the mean±SEM of a representative experiment of multiple experiments (all in replicates of N=3). *denotes t-test P value </= 0.05 compared to siCO.

Experiment [3] deals with PC3-luc cells. Kind of experiment: Intracardiac injection PC3-luc bone metastasis model. The class given is in vivo, mouse. The source says: Fig. 3 KBU2046 inhibits bone destruction. a Treatment schema. Athymic mice were given intracardiac (IC) injections of PC3-luc cells on day 0 under ultrasound guidance, and underwent weekly IVIS imaging starting 7 days post injection. Cohorts of N = 20 control, N = 20 pre (treatment from 3 days prior to IC injection through end of the experiment), N = 10 Pre7Stop (treatment from 3 days prior to IC injection through 7 days post IC injection), and N = 10 post-treatment (treatment from 3 days post IC injection through end of the experiment) mice were dosed with 80 mg/kg KBU2046 daily by oral gavage and mock-treated with vehicle all other times. Whole-body (b) and mandible (c) flux are depicted, as determined from weekly IVIS imaging. d At week 4 post injection (i.e., at the end of the experiment), CT scans were performed on control, pre-, and post-treatment cohorts, and mandibular destruction quantified. e Representative images of pre and control mice are depicted. Arrows denote areas of bone destruction in controls, and corresponding areas in the pre mouse. Student’s t-test (b, c) and Fisher’s exact test (d) P values between the denoted cohorts are shown
Prostate cancer: intracardiac (IC) injection: IC injection of 4.0 × 10^5 PC3-Luc cells into male 6–8 week old athymic mice with IVIS imaging was performed as described, and was done so under ultrasound guidance (Supplementary Fig. 9). Mice were treated pre- and/or post-IC injection, as indicated. The pretreatment cohort emulates a metastasis naive model wherein cell motility is required in order for cells to invade into a distant organ, in this case, the jaw bone, for which this model is widely used. If KBU2046 were inhibiting cell motility, then in this model it would act to inhibit metastasis formation. In contrast, with the post-implantation cohort, cells have already completed invasion into the jaw bone, and distant metastasis have been established. […] IVIS imaging was performed 30 min after IC injection to confirm systemic distribution of cells, and thereafter weekly for 4 weeks starting 7 days post injection, allowing real-time tracking of metastasis development and growth. Computed tomograpgy (CT) (Inveon, Seimens) radiographic imaging was performed on some mice, as indicated, and resultant images analyzed in a blinded fashion using Inveon Research Workplace 4.2 visualization/analysis software and ImageJ. […] Experimental groups were randomly assigned to cages prior to the initiation of the study. CT images were analyzed in a blinded fashion to determine total bone loss using both the Invenon Research Workplace 4.2 visualization/analysis software and ImageJ. Specifically, to asses bone loss in an unbiased manner, an operator randomly loaded images into the system and blocked out identifying information prior to analysis by two separate blinded individuals.

Setting [4] is: pre-cohort, 80 mg/kg daily oral gavage.

Data on 1 compound can be found in PMC6014988, “Precision therapeutic targeting of human cancer cell motility” (Nature Communications, 2018).

Structures are written as SMILES.

For `O=C1c2ccccc2OCC1c1ccc(F)cc1` (racemic) [KBU2046, (±)-3(4-fluorophenyl)chroman-4-one], the “downstream phosphorylation of p38 MAPK and HSP27” value in experiment [1] was “did not inhibit downstream phosphorylation”. In addition, the cell invasion result in experiment [2] ((S226A)-HSP90β transfected cells) is reported as “does not further inhibit cell invasion”; in experiment [2] ((S226D)-HSP90β transfected cells) it was “did not significantly inhibit cell invasion”; in experiment [2] (VC and WT-HSP90β cells) it was “significantly inhibited invasion”; in experiment [2] (VC cells) it was “significantly inhibits invasion”. Besides, the anti-invasion efficacy result in experiment [2] (siRNA-mediated HSP90β knockdown) is listed as “abrogated KBU2046 efficacy”. The total body metastasis entry in experiment [3] (Pre7Stop cohort) is “total body metastasis is significantly decreased”. In addition, in experiment [3] (post-cohort, treatment from 3 days post IC injection), the “metastasis to the total body and jaw” value is given as “do not differ from control mice”. Moreover, the “metastasis to the mandible” value in experiment [3] (setting [4]) is reported as “decreased metastasis to the mandible”. The total metastatic burden result in experiment [3] (setting [4]) is on record as “significant decrease in total metastatic burden”. Moreover, the “destruction of bone (mandible, CT)” value in experiment [3] (pre-cohort, week 4) is “decreased destruction of bone”.
